Measured values: article PMC9782539, “Synthesis, Characterization and Biological Evaluation of Benzothiazole–Isoquinoline Derivative” (Molecules, 2022)

What was measured:
MAO = MAO inhibitory activity (Holts method, rat liver mitochondrial enzyme); format: biochemical
Experimental: (§1) Male SD rats were sacrificed by decapitation, operated on ice, their livers were removed, and the liver surface was washed with precooled phosphate buffer. The liver was cut into pieces, and after washing (using PBS), 20 mL of 0.3 M sucrose buffer was added for homogenization. After fully homogenized, it was balanced by a tray balance. Low–temperature differential centrifugation was performed, and the obtained SD rat liver mitochondrial concentrate was the experimental monoamine oxidase stock solution, and was stored in a −80 °C refrigerator.
(§2) Added 25 µL of enzyme dilution solution and 25 µL of test derivatives (control group plus rasagiline, blank group plus 10% DMSO) to 96–well plate, incubated at 37 °C for 1 h, then 120 µL of substrate was added, 80 µL of chromogenic solution was added, incubated at 37 °C for 30 min, and its absorbance measured at 490 nm. In addition, in order to exclude the influence of protein, a protein control group was established, only the enzyme dilution was added, and the rest were replaced with PBS, and the absorbance value was detected at a wavelength of 490 nm. The inhibition rate of each concentration was substituted into the calculation software GraphPad Prism 8 to calculate the IC50 value.

BuChE = BuChE (Homo sapiens, UniProt P06276); experiment: biochemical; format: biochemical
Chain of BuChE (P06276 29-602): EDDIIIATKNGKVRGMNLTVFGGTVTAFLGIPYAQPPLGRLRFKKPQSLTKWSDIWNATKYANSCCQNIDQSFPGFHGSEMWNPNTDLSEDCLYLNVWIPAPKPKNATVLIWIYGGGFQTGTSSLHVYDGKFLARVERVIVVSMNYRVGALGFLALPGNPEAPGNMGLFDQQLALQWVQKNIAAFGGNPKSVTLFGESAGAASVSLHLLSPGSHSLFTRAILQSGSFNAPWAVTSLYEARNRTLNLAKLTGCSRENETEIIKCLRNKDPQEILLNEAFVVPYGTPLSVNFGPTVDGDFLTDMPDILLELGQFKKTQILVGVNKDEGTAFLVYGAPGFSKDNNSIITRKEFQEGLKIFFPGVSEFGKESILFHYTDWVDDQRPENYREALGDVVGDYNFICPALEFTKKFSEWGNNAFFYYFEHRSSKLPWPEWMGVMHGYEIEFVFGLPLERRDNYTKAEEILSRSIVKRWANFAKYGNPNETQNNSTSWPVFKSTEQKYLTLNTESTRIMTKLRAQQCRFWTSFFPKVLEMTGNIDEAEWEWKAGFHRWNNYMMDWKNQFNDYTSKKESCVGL
Experimental: (§3) Each concentration was tested three times in parallel, and 96 empty plates were taken, and 20 µL of the test sample or positive drug (10% DMSO was added to the blank control), 40 µL of AChE or BuChE (0.2 U/mL) and 100 µL of DTNB (0.001 mol/L) were added in turn, mixed well and incubated in a constant temperature water bath at 37 °C for 15 min.

AChE = AChE (Homo sapiens, UniProt P22303); experiment: biochemical; format: biochemical
Chain of AChE (P22303 32-614): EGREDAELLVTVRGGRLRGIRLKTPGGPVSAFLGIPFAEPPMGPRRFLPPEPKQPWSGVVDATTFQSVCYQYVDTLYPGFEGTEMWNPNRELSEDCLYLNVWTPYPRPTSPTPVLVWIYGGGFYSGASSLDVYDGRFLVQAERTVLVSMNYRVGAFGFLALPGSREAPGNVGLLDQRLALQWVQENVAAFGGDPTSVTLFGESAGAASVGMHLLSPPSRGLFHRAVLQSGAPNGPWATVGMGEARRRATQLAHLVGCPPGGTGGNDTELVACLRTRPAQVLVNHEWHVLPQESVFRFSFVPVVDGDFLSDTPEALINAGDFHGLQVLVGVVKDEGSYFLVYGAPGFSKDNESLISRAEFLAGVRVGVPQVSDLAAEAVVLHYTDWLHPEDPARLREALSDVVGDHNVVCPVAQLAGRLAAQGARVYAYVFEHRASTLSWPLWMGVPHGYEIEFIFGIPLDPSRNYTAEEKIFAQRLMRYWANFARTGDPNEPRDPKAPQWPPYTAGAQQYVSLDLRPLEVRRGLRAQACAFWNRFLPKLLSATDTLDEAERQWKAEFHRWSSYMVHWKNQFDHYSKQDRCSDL
Experimental: as §3

MAO–A = biological target: T1, MAO–A (Rattus norvegicus, UniProt P21396); experiment: MAO–A inhibitory activity (enzyme pre-incubated with pargyline); format: biochemical
T1 construct: the obtained SD rat liver mitochondrial concentrate was the experimental monoamine oxidase stock solution; from tissue; host or cells: male SD rat liver mitochondria
T1 sequence (P21396 1-526): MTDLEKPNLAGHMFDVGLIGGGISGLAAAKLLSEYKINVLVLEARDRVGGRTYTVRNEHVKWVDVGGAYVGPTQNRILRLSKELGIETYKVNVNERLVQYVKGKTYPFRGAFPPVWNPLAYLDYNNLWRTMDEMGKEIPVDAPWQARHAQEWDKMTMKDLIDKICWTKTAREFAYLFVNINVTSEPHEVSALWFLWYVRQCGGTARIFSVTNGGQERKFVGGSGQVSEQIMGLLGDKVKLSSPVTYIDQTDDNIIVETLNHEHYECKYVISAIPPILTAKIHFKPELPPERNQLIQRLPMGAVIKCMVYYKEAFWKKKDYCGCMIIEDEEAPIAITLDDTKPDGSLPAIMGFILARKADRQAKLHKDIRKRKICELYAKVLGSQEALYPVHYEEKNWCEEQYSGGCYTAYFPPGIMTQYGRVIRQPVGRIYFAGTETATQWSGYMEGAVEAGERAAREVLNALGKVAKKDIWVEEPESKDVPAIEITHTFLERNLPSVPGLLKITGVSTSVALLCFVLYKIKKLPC
Experimental: as §1, §2
(§4) The inhibition rate of each concentration was substituted into the calculation software GraphPad Prism 8 to calculate the IC50 value.

ICR male mice = experiment: Forced swimming test (FST); format: in vivo; conditions: i.p., 30 mg/kg; for Duration of Immobility: 30 min after administration, mean ± SEM (n = 8); for DID (%) percentage decrease in immobility duration: vs control
Experimental: Pharmacological experiments of antidepressant activity used FST in mice, fluoxetine hydrochloride was used as a positive control, and the vehicle solvent PFG–400 was used as a blank control. The experiment used ICR male mice (20 ± 2 g). Six benzothiazole–quinoline derivatives were dissolved in polyethylene glycol–400, and 30 min after administration (i.p., 30 mg/kg), the mice were each placed in a glass cylinder, recording the time of immobility. Duration of immobility outcomes is expressed as mean ± SEM. The t-test was used to make comparisons between groups.

Cytotoxicity, MTT method = format: cell-based; conditions: mouse, L929 cells, 0–100 μM, read-out: cell viability (MTT)
Experimental: L929 (Shanghai Cell Bank, Chinese Academy of Sciences) cells were cultured in 10% fetal bovine serum: penicillin–streptomycin solution: MEM mixed medium with serum–free medium (10:1:90), and subcultured in a 5% carbon dioxide cell incubator at 37 °C, and the medium changed every other day.
In this experiment, L929 cells in the logarithmic growth phase were selected, and the cell density was adjusted to 2 × 10^4 cells per well. The cells were seeded in 96–well plates, and the 96–well plates seeded with cells were cultured in a 37 °C 5% carbon dioxide cell incubator. After 24 h, different concentrations of the test compound medium (6.5, 12.5, 25, 50, 100 μM) were added, and the blank group was added with drug–free medium, shaken gently, and placed at 37 °C 5%. The cells were cultured in a carbon dioxide cell incubator for 24 h, and each concentration was replicated 6 times. After 24 h, 20 μL of […] MTT solution (prepared in PBS with pH = 7.6) was added in the dark, and cultured in the cell incubator for another 4 h. After 4 h, the 96–well plate was taken out and the original medium was discarded. Added 160 μL DMSO, put it on a shaker and mixed well for about 10 min, used a microplate reader to measure its absorbance at 490 nm, recorded the results and analyzed.

MAO–B = biological target: T2, MAO–B (Rattus norvegicus, UniProt P19643); experiment: MAO–B inhibitory activity (enzyme pre-incubated with chlorgiline); format: biochemical
T2 construct: the obtained SD rat liver mitochondrial concentrate was the experimental monoamine oxidase stock solution; from tissue; host or cells: male SD rat liver mitochondria
T2 sequence (P19643 1-520): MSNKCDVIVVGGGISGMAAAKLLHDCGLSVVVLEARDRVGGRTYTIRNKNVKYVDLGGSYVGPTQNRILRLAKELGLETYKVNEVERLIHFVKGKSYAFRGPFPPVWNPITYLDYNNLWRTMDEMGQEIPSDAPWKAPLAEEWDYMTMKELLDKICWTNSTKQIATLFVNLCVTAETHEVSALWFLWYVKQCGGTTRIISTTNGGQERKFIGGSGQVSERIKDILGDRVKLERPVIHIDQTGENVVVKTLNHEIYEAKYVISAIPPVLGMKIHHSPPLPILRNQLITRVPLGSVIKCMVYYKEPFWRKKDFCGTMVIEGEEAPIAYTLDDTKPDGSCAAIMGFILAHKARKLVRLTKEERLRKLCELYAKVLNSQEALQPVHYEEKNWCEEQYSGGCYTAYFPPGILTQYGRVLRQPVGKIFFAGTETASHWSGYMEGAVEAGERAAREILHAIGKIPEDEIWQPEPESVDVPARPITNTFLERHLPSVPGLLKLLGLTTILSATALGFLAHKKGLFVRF
Experimental: as §1, §2, §4

| Compound | IC50 (MAO) [µM] | Inhibition Rate of MAO (%) (MAO) | IC50 (BuChE) [µM] | Inhibition Rate (%) BuChE (BuChE) [%] | IC50 (AChE) [µM] | Inhibition Rate (%) AChE (AChE) [%] | Inhibition Rate (%) MAO–A (MAO–A) [%] | Duration of Immobility (ICR male mice) [s] | DID (%) percentage decrease in immobility duration (ICR male mice) [%] | viability at 24 h (Cytotoxicity, MTT method) [%] | IC50 (MAO–B) [µM] | Inhibition Rate (%) MAO–B (MAO–B) [%] | DID (%) percentage decrease in immobility duration (ICR male mice; listed as fluoxetine) [%] |
| --- | --- | --- | --- | --- | --- | --- | --- | --- | --- | --- | --- | --- | --- |
| O=C(CN1CCc2ccccc2[C@H]1c1ccccc1)Nc1nc2c(Cl)cccc2s1 [Compound 4a, (R)–N–(4–chlorobenzo[d]thiazol–2–yl)–2–(1–phenyl–3,4–dihydroisoquinolin–2(1H)–yl)acetamide] | > 150 | 14.93 | > 150 | 38.08 | > 150 | 6.08 |  |  |  |  |  |  |  |
| O=C(CN1CCc2ccccc2[C@H]1c1ccccc1)Nc1nc2cc(Cl)ccc2s1 [Compound 4b, (R)–N–(5–chlorobenzo[d]thiazol–2–yl)–2–(1–phenyl–3,4–dihydroisoquinolin–2(1H)–yl)acetamide] | 38.8 ± 3.76 | 39.27 | 17.6 ± 1.78 | 69.44 | > 150 | 4.42 | 3.01 | 85.7 ± 8.1 | 51.98 | > 90 | 40.8 ± 2.67 | 39.15 |  |
| O=C(CN1CCc2ccccc2[C@H]1c1ccccc1)Nc1nc2cc(Br)ccc2s1 [Compound 4e, (R)–N–(5–bromobenzo[d]thiazol–2–yl)–2–(1–phenyl–3,4–dihydroisoquinolin–2(1H)–yl)acetamide] | 128.1 ± 1.27 | 9.29 | 18.3 ± 2.68 | 68.80 | > 150 | 4.97 |  |  |  |  |  |  |  |
| Cc1ccc2sc(NC(=O)CN3CCc4ccccc4[C@H]3c3ccccc3)nc2c1 [Compound 4h, (R)–N–(5–methylbenzo[d]thiazol–2–yl)–2–(1–phenyl–3,4–dihydroisoquinolin–2(1H)–yl)acetamide] | 76.4 ± 2.58 | 16.72 | 11.5 ± 3.22 | 37.44 | > 150 | 3.31 |  |  |  |  |  |  |  |
| COc1cccc2sc(NC(=O)CN3CCc4ccccc4[C@H]3c3ccccc3)nc12 [Compound 4j, (R)–N–(4–methoxybenzo[d]thiazol–2–yl)–2–(1–phenyl–3,4–dihydroisoquinolin–2(1H)–yl)acetamide] | > 150 | 5.70 | > 150 | 51.52 | > 150 | 12.71 |  |  |  |  |  |  |  |
| COc1ccc2sc(NC(=O)CN3CCc4ccccc4[C@H]3c3ccccc3)nc2c1 [Compound 4k, (R)–N–(5–methoxybenzo[d]thiazol–2–yl)–2–(1–phenyl–3,4–dihydroisoquinolin–2(1H)–yl)acetamide] | 65.5 ± 3.51 | 17.75 | 10.2 ± 2.91 | 57.92 | > 150 | 3.31 |  |  |  |  |  |  |  |
| COc1ccc2nc(NC(=O)CN3CCc4ccccc4[C@H]3c3ccccc3)sc2c1 [Compound 4l, (R)–N–(6–methoxybenzo[d]thiazol–2–yl)–2–(1–phenyl–3,4–dihydroisoquinolin–2(1H)–yl)acetamide] | 76.3 ± 2.94 | 11.34 | 3.86 ± 0.82 | 41.92 | > 150 | 3.31 |  |  |  |  |  |  |  |
| O=C(CN1CCc2ccccc2[C@H]1c1ccccc1)Nc1nc2ccc(F)cc2s1 [Compound 4m, (R)–N–(6–fluorobenzo[d]thiazol–2–yl)–2–(1–phenyl–3,4–dihydroisoquinolin–2(1H)–yl)acetamide] | > 150 | 9.76 | 50.3 ± 1.68 | 22.33 | > 150 | 2.76 |  |  |  |  |  |  |  |
| O=C(CN1CCc2ccccc2[C@H]1c1ccccc1)Nc1nc2ccc([N+](=O)[O-])cc2s1 [Compound 4n, (R)–N–(6–nitrobenzo[d]thiazol–2–yl)–2–(1–phenyl–3,4–dihydroisoquinolin–2(1H)–yl)acetamide] | > 150 | 12.51 | 12.3 ± 3.76 | 20.31 | > 150 | 2.76 |  |  |  |  |  |  |  |
| O=C(CN1CCc2ccccc2[C@H]1c1ccccc1)Nc1nc2c(Cl)cc(Cl)cc2s1 [Compound 4o, (R)–N–(4,6–dichlorobenzo[d]thiazol–2–yl)–2–(1–phenyl–3,4–dihydroisoquinolin–2(1H)–yl)acetamide] | 67.8 ± 1.26 | 10.19 | 21.8 ± 2.85 | 52.16 | > 150 | 3.87 |  |  |  |  |  |  |  |
| O=C(CN1CCc2ccccc2[C@H]1c1ccccc1)Nc1nc2c(Br)cc(Br)cc2s1 [Compound 4p, (R)–N–(4,6–dibromobenzo[d]thiazol–2–yl)–2–(1–phenyl–3,4–dihydroisoquinolin–2(1H)–yl)acetamide] | 59.3 ± 3.22 | 19.80 | 27.1 ± 1.73 | 43.84 | > 150 | 6.63 |  |  |  |  |  |  |  |
| CNCCC(Oc1ccc(C(F)(F)F)cc1)c1ccccc1 (stereo not shown) [Fluoxetine, reference compound] |  |  |  |  |  |  |  | 31.7 ± 7.7 | 82.20 |  |  |  | 82.2 |
| C#CCN(C)Cc1ccccc1 [Pargyline, reference compound] |  |  |  |  |  |  |  |  |  |  |  | 93.47 |  |
